Where “and” joins values, the source holds several entries; their conditions need not be identical. Identical values can stand only once.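 Exposure lasted 48 hours, with cells grown in 96-well plates and compounds tested at five concentrations. GI50: concentration for 50% inhibition of growth.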 Calls of active or inactive are those of the source. No stated cut-off is given here; in the data, active = GI50 up to about 1.1 µM and inactive = higher.
Key:
Assay in all cases: growth of human tumour cells (NCI), 48 h
SR = tested on: SR
OVCAR-3 = tested on: OVCAR-3
PC-3 = tested on: PC-3
KM12 = tested on: KM12
TK-10 = tested on: TK-10
UACC-257 = tested on: UACC-257
CCRF-CEM = tested on: CCRF-CEM
SF-539 = tested on: SF-539
HOP-62 = tested on: HOP-62
MDA-MB-231 = tested on: MDA-MB-231
NCI/ADR-RES = tested on: NCI/ADR-RES
K562 = tested on: K562
SNB-75 = tested on: SNB-75
U-251 = tested on: U-251
CAKI-1 = tested on: CAKI-1
SF-295 = tested on: SF-295
Hs-578T = tested on: Hs-578T
DU-145 = tested on: DU-145
MOLT-4 = tested on: MOLT-4
SW-620 = tested on: SW-620

Structure (SMILES)	GI50 (SR)	GI50 (OVCAR-3)	GI50 (PC-3)	GI50 (KM12)	GI50 (TK-10)	GI50 (UACC-257)	GI50 (CCRF-CEM)	GI50 (SF-539)	GI50 (HOP-62)	GI50 (MDA-MB-231)	GI50 (NCI/ADR-RES)	GI50 (K562)	GI50 (SNB-75)	GI50 (U-251)	GI50 (CAKI-1)	GI50 (SF-295)	GI50 (Hs-578T)	GI50 (DU-145)	GI50 (MOLT-4)	GI50 (SW-620)
CC(=O)OCC1C(=O)OCC1C(=O)N1Cc2cc3ccccc3nc2C1 (stereo not drawn)	1.49 µM (inactive)	1.57 µM (inactive)	7.45 µM (inactive)	16.2 µM (inactive)	1.61 µM (inactive)	2.47 µM (inactive)	0.488 µM (active)	6 µM (inactive)	16.6 µM (inactive)	6.4 µM (inactive)	0.69 µM (active)	0.676 µM (active)	4.58 µM (inactive)	11.3 µM (inactive)	0.955 µM (active)	16.1 µM (inactive)	7.14 µM (inactive)	4.5 µM (inactive)	1.44 µM (inactive)	0.469 µM (active)
COc1cccc(NCC(=O)Nn2c(-c3ccccc3)nc3ccccc3c2=O)c1	> 100 µM (inactive)	> 100 µM (inactive)	> 100 µM (inactive)	> 100 µM (inactive)	> 100 µM (inactive)	> 100 µM (inactive)	82 µM (inactive)	> 100 µM (inactive)	> 100 µM (inactive)	> 100 µM (inactive)	> 100 µM (inactive)	> 100 µM (inactive)	> 100 µM (inactive)	> 100 µM (inactive)		> 100 µM (inactive)	> 100 µM (inactive)	> 100 µM (inactive)	> 100 µM (inactive)	> 100 µM (inactive)
CCOC(=O)Nc1ccc2c(c1)c(CCCCCCc1nc3ccccc3c3ccc(NC(=O)OCC)cc13)nc1ccccc12	> 100 µM (inactive)	21.3 µM (inactive)	> 100 µM (inactive)	> 100 µM (inactive)	26.2 µM (inactive)	47.2 µM (inactive)	> 100 µM (inactive)	12.5 µM (inactive)	27.7 µM (inactive)	30.5 µM (inactive)	41.2 µM (inactive)	80 µM (inactive)	16.3 µM (inactive)		34.8 µM (inactive)	49.5 µM (inactive)	> 100 µM (inactive)	> 100 µM (inactive)	> 100 µM (inactive)	> 100 µM (inactive)
CC(C)C(C)/C=C\C(C)C1CCC2C3=CC=C4CC(O)CCC4(C)C3CCC21C (stereo not drawn)	34.4 µM (inactive)	> 51.1 µM (inactive)	> 56.2 µM (inactive)	> 54.8 µM (inactive)	> 55 µM (inactive)	> 76.9 µM (inactive)	19.8 µM (inactive)	> 44.6 µM (inactive)	> 51.1 µM (inactive)	> 40.6 µM (inactive)	> 41.3 µM (inactive)	26.5 µM (inactive)	> 42.8 µM (inactive)	> 31.8 µM (inactive)	> 43.7 µM (inactive)	> 64.9 µM (inactive)	> 41.3 µM (inactive)	51.6 µM (inactive)	17.7 µM (inactive)	> 49.3 µM (inactive)
O=c1c(-c2ccc(Cl)cc2)nnc2n(Cc3ccccc3)c3ccccc3n12	> 100 µM (inactive)		30.1 µM (inactive)	28.9 µM (inactive)	20.6 µM (inactive)	51.3 µM (inactive)	> 100 µM (inactive)	13.6 µM (inactive)	23.6 µM (inactive)	20 µM (inactive)	52.7 µM (inactive)		13 µM (inactive)	23.7 µM (inactive)	16.4 µM (inactive)	19.1 µM (inactive)	24 µM (inactive)	> 100 µM (inactive)	66.7 µM (inactive)	> 100 µM (inactive)
CC1OC(OC2C(OC(=O)[C@]34CCC(C)(C)C[C@H]3C3=CC[C@@H]5[C@@]6(C)CC[C@H](OC7OC(CO)C(O)C(O)C7OC7OC(CO)C(O)C(O)C7O)C(C)(C)[C@@H]6CC[C@@]5(C)[C@]3(C)CC4)OCC(O)C2O)C(O)C(O)C1OC1OCC(O)C(OC2OCC(O)C(O)C2O)C1O (stereo partly drawn)	2.19 µM (inactive) and 3.06 µM (inactive)	10.7 µM (inactive) and 6.5 µM (inactive)	6.62 µM (inactive) and 5.32 µM (inactive)	3.74 µM (inactive) and 3.59 µM (inactive)	8.41 µM (inactive) and 8.63 µM (inactive)	2.22 µM (inactive) and 2.33 µM (inactive)	11.3 µM (inactive) and 13.2 µM (inactive)	29.2 µM (inactive) and 19.5 µM (inactive)		3.14 µM (inactive) and 2.84 µM (inactive)	5.81 µM (inactive) and 3.99 µM (inactive)	4.6 µM (inactive) and 3.77 µM (inactive)	7.93 µM (inactive) and 5.86 µM (inactive)	6.76 µM (inactive) and 9.84 µM (inactive)	3.6 µM (inactive) and 4 µM (inactive)	3.44 µM (inactive) and 3.78 µM (inactive)	13.5 µM (inactive) and 12.9 µM (inactive)	8.11 µM (inactive) and 7.05 µM (inactive)		10.4 µM (inactive) and 11 µM (inactive)
CC(=O)Oc1ccc(-c2cc3ccccc3oc2=O)cc1OC(C)=O	8.63 µM (inactive)		47.5 µM (inactive)	11.8 µM (inactive)	22.1 µM (inactive)	24.4 µM (inactive)	5.3 µM (inactive)	21.6 µM (inactive)	43.7 µM (inactive)	28.6 µM (inactive)	21.3 µM (inactive)	27.5 µM (inactive)	26.9 µM (inactive)	32.7 µM (inactive)		28.2 µM (inactive)	35.9 µM (inactive)	24.9 µM (inactive)	3.47 µM (inactive)	33.3 µM (inactive)
O=c1[nH]c2ccc(C(F)(F)F)cc2nc1Cc1ccccc1	> 100 µM (inactive)		26.4 µM (inactive)	31.6 µM (inactive)	> 100 µM (inactive)	67.1 µM (inactive)	29.4 µM (inactive)	31.3 µM (inactive)	33 µM (inactive)	37.8 µM (inactive)	18.5 µM (inactive)	38.5 µM (inactive)	45.9 µM (inactive)	45.7 µM (inactive)	49.2 µM (inactive)	33.5 µM (inactive)	22.3 µM (inactive)	34.4 µM (inactive)	16.2 µM (inactive)	39.4 µM (inactive)
NC1=C(c2nc(-c3ccccc3)cs2)C(c2ccco2)c2c(c3ccccc3oc2=O)O1 (stereo not drawn)	> 100 µM (inactive)	> 100 µM (inactive)	> 100 µM (inactive)		> 100 µM (inactive)	> 100 µM (inactive)	> 100 µM (inactive)	> 100 µM (inactive)	> 100 µM (inactive)	> 100 µM (inactive)	> 100 µM (inactive)	> 100 µM (inactive)	> 100 µM (inactive)	> 100 µM (inactive)	> 100 µM (inactive)	> 100 µM (inactive)	3.32 µM (inactive)	> 100 µM (inactive)		> 100 µM (inactive)
CC1(O)CC(C(F)(F)F)(C(F)(F)F)OC1=O (stereo not drawn)	> 10 µM (inactive)	> 10 µM (inactive)	> 10 µM (inactive)	> 10 µM (inactive)	> 10 µM (inactive)	> 10 µM (inactive)	> 10 µM (inactive)	> 10 µM (inactive)	> 10 µM (inactive)	> 10 µM (inactive)	> 10 µM (inactive)	> 10 µM (inactive)		> 10 µM (inactive)	> 10 µM (inactive)	> 10 µM (inactive)	> 10 µM (inactive)	> 10 µM (inactive)	> 10 µM (inactive)	> 10 µM (inactive)
